The nature of series [1]: Cytotoxicity against human DU145 cells assessed as reduction in cell viability after 72 hrs by MTT assay. It is filed as functional, cell-based, DU-145. The following applies: Homo sapiens, DU-145, 72 h. On the technique in general: Formazan colour is commonly taken as a measure of viable cells.
Series [2] is described as follows: Cytotoxicity against mouse CT26 cells assessed as reduction in cell viability after 72 hrs by MTT assay. Particulars: Mus musculus, CT26, 72 h. The series is classed as functional, cell-based.
The nature of series [3]: Cytotoxicity against HEK293T cells assessed as reduction in cell viability at 0.33 to 100 uM after 72 hrs by MTT assay. It is filed as toxicity, cell-based. The following applies: human, hek-293t.
A short description of series [4]: Cytotoxicity against African green monkey Vero cells assessed as reduction in cell viability at 0.33 to 100 uM after 72 hrs by MTT assay. It is filed as toxicity, cell-based. The following applies: chlorocebus sabaeus.
Series [5] is described as follows: cells. The following applies: Homo sapiens, MCF7, 72 h.
Description: Cytotoxicity against human MCF7 cells assessed as reduction in cell viability after 72 hrs by MTT assay
A short description of series [6]: cells. Particulars: Homo sapiens, HCT-116, 72 h.
Description: Cytotoxicity against human HCT116 cells assessed as reduction in cell viability after 72 hrs by MTT assay
For series [7], the target named is Induced myeloid leukemia cell differentiation protein Mcl-1 (Homo sapiens, UniProt Q07820). The series is described as follows: Inhibition of FAM-Bid binding to human MCL1 expressed in Escherichia coli BL21 after 30 mins by fluorescence polarization assay. Background: In fluorescence polarisation assays a small probe gives low polarisation when free and higher when bound to something large.

In series [8] the target is Apoptosis regulator Bcl-2 (Homo sapiens, UniProt P10415). In words: Inhibition of FAM-Bid binding to human BCL2 expressed in Escherichia coli BL21 after 30 mins by fluorescence polarization assay.
The subject of series [9] is NCI60. In words: Cytotoxicity against human NCI60 cells assessed as cell growth inhibition up to 10 uM after 48 hrs by SRB assay. It is filed as functional, cell-based. On the technique in general: In SRB staining, fixed cells bind dye roughly in proportion to their protein.

The source made the active and inactive calls. The calls are words filed in the database; no cut-off is given here.

Chain of Apoptosis regulator Bcl-2 (P10415 whole entry): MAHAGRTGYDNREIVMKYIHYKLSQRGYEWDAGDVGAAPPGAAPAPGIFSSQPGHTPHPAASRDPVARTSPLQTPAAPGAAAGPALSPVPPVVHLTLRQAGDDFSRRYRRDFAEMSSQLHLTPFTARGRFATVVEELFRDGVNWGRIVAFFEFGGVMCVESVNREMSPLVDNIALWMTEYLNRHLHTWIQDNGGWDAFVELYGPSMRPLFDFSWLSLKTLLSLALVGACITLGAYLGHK
Chain of Induced myeloid leukemia cell differentiation protein Mcl-1 (Q07820 whole entry): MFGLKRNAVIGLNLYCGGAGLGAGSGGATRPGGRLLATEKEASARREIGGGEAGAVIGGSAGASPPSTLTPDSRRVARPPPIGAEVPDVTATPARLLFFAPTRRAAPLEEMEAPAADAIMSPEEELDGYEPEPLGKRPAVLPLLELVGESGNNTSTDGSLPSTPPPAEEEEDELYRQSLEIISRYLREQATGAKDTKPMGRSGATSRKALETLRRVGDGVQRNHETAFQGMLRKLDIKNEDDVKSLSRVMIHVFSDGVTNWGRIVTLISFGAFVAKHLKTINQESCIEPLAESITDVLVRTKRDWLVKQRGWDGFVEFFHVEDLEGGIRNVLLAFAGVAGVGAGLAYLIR

As a reminder, the IC50 is the point on the concentration scale where inhibition reaches its midpoint. `Cc1cc2c(c(O)c1-c1c(C)cc3c(c1O)/C(=C/NCCC(=O)O)C(=O)C(O)=C3C(C)C)/C(=C/NCCC(=O)O)C(=O)C(O)=C2C(C)C`: the IC50 in series [1] stood at 21.6 µM; in series [2], 67.3 µM; in series [5], 19.4 µM; in series [6] it was 21 µM. Further, the Activity entry in series [3] and in [4] was “Non-Toxic” in each case.
Turning to `Cc1cc2c(c(O)c1-c1c(C)cc3c(c1O)/C(=C/N[C@H]1C[C@@H]4C[C@H]([C@@H]1C)C4(C)C)C(=O)C(O)=C3C(C)C)/C(=C/N[C@H]1C[C@@H]3C[C@H]([C@@H]1C)C3(C)C)C(=O)C(O)=C2C(C)C`, the half-inhibitory concentration (IC50) in series [1], in [2], in [5] and in series [6] was over 100 µM each time.
On to `Cc1cc2c(c(O)c1-c1c(C)cc3c(c1O)/C(=C/NCCS(=O)(=O)O)C(=O)C(O)=C3C(C)C)/C(=C/NCCS(=O)(=O)O)C(=O)C(O)=C2C(C)C`, for which the IC50 in series [1] was 28.9 µM; in [2] it was 3.19 µM; in [5], 15.9 µM; in series [6], 48.9 µM.
In the case of `Cc1cc2c(c(O)c1-c1c(C)cc3c(c1O)/C(=C/NC14CC5CC(CC(C5)C1)C4)C(=O)C(O)=C3C(C)C)/C(=C/NC13CC4CC(CC(C4)C1)C3)C(=O)C(O)=C2C(C)C`, the IC50 in series [1], in [2], in series [5] and in [6] was over 100 µM in each case.
For the compound `Cc1cc2c(c(O)c1-c1c(C)cc3c(c1O)/C(=C/NCCCCCC(=O)O)C(=O)C(O)=C3C(C)C)/C(=C/NCCCCCC(=O)O)C(=O)C(O)=C2C(C)C`, the half-inhibitory concentration (IC50) turned out to be 27.5 µM in series [1], 4.54 µM in series [2], 17.7 µM in series [5] and 23.1 µM in series [6]. Further, the Activity entry in series [3] and in series [4] was “Non-Toxic” each time.
By Ki is commonly meant the dissociation constant of the complex between target and ligand, obtained from inhibition or displacement. In the case of `COC(=O)CCCN/C=C1\C(=O)C(O)=C(C(C)C)c2cc(C)c(-c3c(C)cc4c(c3O)/C(=C/NCCCC(=O)OC)C(=O)C(O)=C4C(C)C)c(O)c21` (stereo in doubt; (-)-16), the IC50 in series [7] is 0.937 µM; in [8] it was 0.375 µM. Besides, the inhibition constant Ki in series [7] stood at 0.178 µM; in series [8] it was 0.131 µM.
On to `COC(=O)CCCN/C=C1\C(=O)C(O)=C(C(C)C)c2cc(C)c(-c3c(C)cc4c(c3O)/C(=C/NCCCC(=O)OC)C(=O)C(O)=C4C(C)C)c(O)c21` (stereo in doubt; (+)-16), for which, in [7], the IC50 worked out at 1.25 µM and the Ki was found to be 0.24 µM. Moreover, in [8], the concentration for half-maximal inhibition (IC50) was determined as 0.452 µM and the affinity, expressed as Ki, was 0.167 µM.
As for `Cc1cc2c(c(O)c1-c1c(C)cc3c(c1O)/C(=C/NC(C)(C)C)C(=O)C(O)=C3C(C)C)/C(=C/NC(C)(C)C)C(=O)C(O)=C2C(C)C`, the half-inhibitory concentration (IC50) in [1] was 17.2 µM; in [2], 12.8 µM; in series [5] it was over 100 µM; in series [6], over 100 µM. Further, the “growth inhibition (GI)” value in series [9] is “Active”.
For the compound `COC(=O)c1ccccc1N/C=C1\C(=O)C(O)=C(C(C)C)c2cc(C)c(-c3c(C)cc4c(c3O)/C(=C/Nc3ccccc3C(=O)OC)C(=O)C(O)=C4C(C)C)c(O)c21`, the IC50 in series [1] turned out to be 20.9 µM; in [2], 21.4 µM; in series [5], 24.7 µM; in [6], 37.3 µM.
With `Cc1cc2c(c(O)c1-c1c(C)cc3c(c1O)/C(=C/NCc1ccc4c(c1)OCO4)C(=O)C(O)=C3C(C)C)/C(=C/NCc1ccc3c(c1)OCO3)C(=O)C(O)=C2C(C)C`, the IC50 in [1] is 29.2 µM; in [2], over 100 µM; in [5], over 100 µM; in [6], 8.3 µM.
As to `COC(=O)[C@H](CCSC)N/C=C1\C(=O)C(O)=C(C(C)C)c2cc(C)c(-c3c(C)cc4c(c3O)/C(=C/N[C@@H](CCSC)C(=O)OC)C(=O)C(O)=C4C(C)C)c(O)c21`, the IC50 in [1] was 17.7 µM; in series [2] it was over 100 µM; in [5], over 100 µM; in series [6] it was 0.52 µM.
For `Cc1cc2c(c(O)c1-c1c(C)cc3c(c1O)/C(=C/NC1CCC(C(C)(C)C)CC1)C(=O)C(O)=C3C(C)C)/C(=C/NC1CCC(C(C)(C)C)CC1)C(=O)C(O)=C2C(C)C` (centres undefined), the IC50 was over 100 µM in [1], 21.7 µM in series [2], over 100 µM in series [5] and over 100 µM in series [6].
`Cc1cc2c(c(O)c1-c1c(C)cc3c(c1O)/C(=C/NCc1ccco1)C(=O)C(O)=C3C(C)C)/C(=C/NCc1ccco1)C(=O)C(O)=C2C(C)C`: the IC50 was 15.5 µM in series [1], over 100 µM in [2], over 100 µM in [5] and 42.4 µM in series [6]. Besides, in [9], the “growth inhibition (GI)” value is “Active”.
Consider `COC(=O)[C@@H](N/C=C1\C(=O)C(O)=C(C(C)C)c2cc(C)c(-c3c(C)cc4c(c3O)/C(=C/N[C@H](C(=O)OC)C(C)C)C(=O)C(O)=C4C(C)C)c(O)c21)C(C)C`, for which the IC50 was found to be 12.1 µM in [1], 5.85 µM in series [2], 77.3 µM in series [5] and 77.1 µM in series [6].
Regarding `Cc1cc2c(c(O)c1-c1c(C)cc3c(c1O)/C(=C/NCc1ccccc1)C(=O)C(O)=C3C(C)C)/C(=C/NCc1ccccc1)C(=O)C(O)=C2C(C)C`, the 50% inhibitory concentration (IC50) in [1] is 21.9 µM; in [2], over 100 µM; in series [5], over 100 µM; in series [6], 83.1 µM. Further, the “growth inhibition (GI)” value in [9] is “Active”.
In the case of `COC(=O)CCCN/C=C1\C(=O)C(O)=C(C(C)C)c2cc(C)c(-c3c(C)cc4c(c3O)/C(=C/NCCCC(=O)OC)C(=O)C(O)=C4C(C)C)c(O)c21` (stereo in doubt; 16), the “growth inhibition (GI)” value in series [9] is “Active”.
Turning to `Cc1cc2c(c(O)c1-c1c(C)cc3c(c1O)/C(=C/NCCCS(=O)(=O)O)C(=O)C(O)=C3C(C)C)/C(=C/NCCCS(=O)(=O)O)C(=O)C(O)=C2C(C)C`, the IC50 in [1] was determined as 36 µM; in series [2], 35.6 µM; in series [5] it was 17.7 µM; in series [6] it was 43.1 µM.
`Cc1cc2c(c(O)c1-c1c(C)cc3c(c1O)/C(=C/NCCCC(=O)O)C(=O)C(O)=C3C(C)C)/C(=C/NCCCC(=O)O)C(=O)C(O)=C2C(C)C`: the IC50 in series [1] was 18.1 µM; in [2] it was 28.8 µM; in series [7], 0.661 µM; in series [8], 0.596 µM; in series [5], 20 µM; in series [6], 32.3 µM. For the same compound, the Ki was found to be 0.094 µM in [7] and 0.235 µM in [8]. In addition, the Activity entry in [3] and in [4] was “Non-Toxic” in each case.
As to `COC(=O)CCCCCCN/C=C1\C(=O)C(O)=C(C(C)C)c2cc(C)c(-c3c(C)cc4c(c3O)/C(=C/NCCCCCCC(=O)OC)C(=O)C(O)=C4C(C)C)c(O)c21`, the IC50 in [1] is 11.4 µM; in series [2] it was 5.59 µM; in series [5], 8.95 µM; in [6], 13.1 µM. For the same compound, the Activity entry in series [3] and in [4] was “Non-Toxic” in each case. In series [9], the “growth inhibition (GI)” value is “Active”.
`Cc1cc2c(c(O)c1-c1c(C)cc3c(c1O)/C(=C/NCCCCC(=O)O)C(=O)C(O)=C3C(C)C)/C(=C/NCCCCC(=O)O)C(=O)C(O)=C2C(C)C`: the IC50 worked out at 20.7 µM in series [1]; 4.46 µM in [2]; 0.478 µM in [7]; 0.458 µM in series [8]; 15.9 µM in series [5]; 22.2 µM in series [6]. Further, the Ki in [7] was 0.085 µM; in [8], 0.171 µM. Besides, the Activity result in series [3] and in [4] was “Non-Toxic” each time.
For the compound `COC(=O)CCN/C=C1\C(=O)C(O)=C(C(C)C)c2cc(C)c(-c3c(C)cc4c(c3O)/C(=C/NCCC(=O)OC)C(=O)C(O)=C4C(C)C)c(O)c21`, the IC50 in series [1] came out at 9.47 µM; in series [2], 4.25 µM; in [7], 2.96 µM; in series [8], 0.286 µM; in series [5], 5.64 µM; in [6], 5.24 µM. The Ki in [7] stood at 0.579 µM; in series [8], 0.09 µM. Moreover, the Activity result in series [3] and in series [4] was “Non-Toxic” throughout.
Take `Cc1cc2c(c(O)c1-c1c(C)cc3c(c1O)/C(=C/NC(C)(C)C(C)(C)C)C(=O)C(O)=C3C(C)C)/C(=C/NC(C)(C)C(C)(C)C)C(=O)C(O)=C2C(C)C`: the half-maximal inhibitory concentration (IC50) in series [1] is over 100 µM; in [2], 5.4 µM; in series [5] it was over 100 µM; in series [6] it was over 100 µM. The “growth inhibition (GI)” value in series [9] was “Active”.
As for `Cc1cc2c(c(O)c1-c1c(C)cc3c(c1O)/C(=C/NC1CCCCC1)C(=O)C(O)=C3C(C)C)/C(=C/NC1CCCCC1)C(=O)C(O)=C2C(C)C`, the IC50 in [1] was 20.7 µM; in series [2], 25.2 µM; in series [5], over 100 µM; in series [6] it was 80.3 µM. Also, the “growth inhibition (GI)” value in series [9] was “Active”.
For `Cc1cc2c(c(O)c1-c1c(C)cc3c(c1O)/C(=C/Nc1ccc(C(C)(C)C)cc1)C(=O)C(O)=C3C(C)C)/C(=C/Nc1ccc(C(C)(C)C)cc1)C(=O)C(O)=C2C(C)C`, in that order: over 100 µM, 12.8 µM, over 100 µM, over 100 µM and “Active”.

Source of the values: ChEMBL document CHEMBL3864191 (ACS Med Chem Lett, 2016).
